Assay results as given in patent US20170189419A1, “PHARMACEUTICAL COMPOSITION FOR TREATING PROSTATE CANCER” (MA SHEN KAI RUEI CO., LTD., priority 2015, published 2017).

Experiments:
[1] = tested on: human prostate-cancer cells DU-145; assay: MTT survival assay, DU-145 prostate cancer cells; assay type: cell-based; conditions: DU-145 cells; for survival rate / growth of prostate cancer cell: compound isolated from Extraction A
From the text: (§1) According to the present invention, the effects such as treating Prostate cancer, inhibiting the growth of Prostate cancer cell and others, of Antroquinonol B (AnQB) and/or Anctin K (AnK) may be tested by using any of the test methods used in the prior arts, for example, MTT assay of using 3-(4, 5-dimethylthiazol-2-yl)-2, S-diphenyl tetrazolium bromide (MTT) to determine cell survival rates of Prostate cancer cell lines.
(§2) The Antroquinonol B (AnQB) and Anctin K (AnK) separately isolated from the Extraction A of Example 1 were added into the culture media of human prostate-cancer cells, PC3 or DU-145, to test for tumor cell survival by using anti-cancer drug screen model. This survival assay was carried out with the widely known MTT (3-[4,5-dimethylthiazol-2-yl]2,5-diphenyltetrazolium bromide) assay.
(§3) The human prostate cancer cell lines, PC-3 and DU-145 were cultivated in media containing fetal calf serum for 18 hours. The proliferated cells were washed once with PBS, then treated with 1× trypsin-EDTA and centrifuged at 2500 rpm for […]. The supernatant was discarded and the cell pellet was re-suspended in 200 ml of fresh culture medium by gently shaking. The cells were placed in a 96-well plate.
(§4) Subsequently, the plates were read on an ELISA reader to determine the survival rates. The half maximal inhibitory concentration (IC50) values were calculated and results of ex vivo survival assay were thus obtained.
(§5) By using the same manner as the method described above, respectively human Prostate cancer cell line PC-3 and DU-145 was cultured. After then, the pharmaceutical compositions A˜F of the present invention was applied separately, and then MTT assay for each sample was measured to assess the inhibition effectiveness of various cancer cell activity while using pharmaceutical compositions A˜F of the present invention.

[2] = tested on: human prostate-cancer cells PC3; assay: MTT survival assay, PC3 prostate cancer cells; assay type: cell-based; conditions: for half-maximal inhibitory concentration (IC50): PC3 cells; for survival rate / growth of prostate cancer cell: PC-3 cells, compound isolated from Extraction A
From the text: as §1, §2, §3, §4, §5

Row | SMILES | half-maximal inhibitory concentration (IC50) [1] | survival rate / growth of prostate cancer cell [1] | half-maximal inhibitory concentration (IC50) [2] | survival rate / growth of prostate cancer cell [2]
1 | COC1=C(OC)[C@H](O)[C@H](C/C=C(\C)CC/C=C(/C)C/C=C/C(C)(C)O)[C@@H](C)C1=O [Antroquinonol B] | relatively low | can inhibit the growth | relatively low | can inhibit the growth
2 | C=C(CC[C@@H](C(=O)O)[C@H]1CC[C@@]2(C)C3=CC[C@H]4C(C)(C)[C@@H](O)CC[C@]4(C)C3=CC[C@]12C)C(C)C [Anctin K] | relatively low | can inhibit the growth | relatively low | can inhibit the growth
